According to patent US20230165836A1, “ALPHA-2 ADRENERGIC RECEPTOR AGONISTS FOR THE TREATMENT OF CANCER” (UNIVERSITÉ CATHOLIQUE DE LOUVAIN, priority 2020, published 2023):

Experiments:
cholangiocarcinoma = conditions: in vitro; Kanno et al., Hepatology, 2002; cited from earlier work
[1] = stated without a test; cited from earlier work
CT26 colon cancer = CT26 colon cancer tumor growth (FIG. 25B); assay type: in vivo, mice; conditions: 5 mg/kg, i.p
Description: (§1) FIGS. 25A-B is a set of curves showing the tumor growth of MC38 (FIG. 25A) or CT26 (FIG. 25B) colon cancer in mice treated with PBS (Control; closed circles), clonidine (5 mg/kg, i.p; closed squares) or apraclonidine (5 mg/kg, i.p; closed triangles).

MC38 colon cancer = MC38 colon cancer tumor growth (FIG. 25A); assay type: in vivo, mice; conditions: 5 mg/kg, i.p
Description: as §1

Row | Compound | cholangiocarcinoma growth (cholangiocarcinoma) | crossing of the blood-brain barrier [1] | tumor growth (CT26 colon cancer) | tumor growth (MC38 colon cancer)
1 | brimonidine tartrate [UK14,304] | significantly decreases cholangiocarcinoma growth |  |  | 
2 | Nc1cc(Cl)c(N=C2NCCN2)c(Cl)c1 [apraclonidine] |  | does not cross the blood-brain barrier | anti-tumor effect | anti-tumor effect
